From publication PMC4210897, “Antimicrobial Activity of Peptides Derived from Olive Flounder Lipopolysaccharide Binding Protein/Bactericidal Permeability-Increasing Protein (LBP/BPI)” (Marine Drugs, 2014)
Where no end group is shown, it is not given here.

Columns and labels:
[1] = test system: B. subtilis KCTC1021; experiment: Ultrasensitive radial diffusion assay (URDA), MEC; format: cell-based, Bacillus subtilis; settings: B. subtilis KCTC1021, Gram +, 10 mM PB pH 6.6, 37 °C, x-intercept of units vs log10 concentration, triplicate averaged
Description: (§1) The antimicrobial activity of the purified peptide was assessed as described previously. We tested the synthetic peptides against several Gram-positive bacteria including two Bacillus subtilis strains, Micrococcus luteus, Staphylococcus aureus, and Streptococcus iniae, Gram-negative bacteria including three Escherichia coli strains, Aeromonas hydrophila, Edwardsiella tarda, Pseudomonas aeruginosa, Vibrio parahemolyticus, and Salmonella enteric, as well as the yeast Candida albicans. All strains were grown overnight for 18 h in trypticase soy broth (TSB) or sabouraud dextrose broth (SDB) at the appropriate temperature (25 °C for A. hydrophila, E. tarda, P. aeruginosa, S. iniae, and V. parahemolyticus and 37 °C for the other strains). After an overnight incubation, the bacterial and C. albicans suspensions were diluted to a McFarland turbidity standard of 0.5 (Vitek Colorimeter #52-1210; Hach, Loveland, CO, USA) corresponding to ~10^8 CFU/mL for bacteria and ~10^6 CFU/mL for C. albicans. One-half milliliter of diluted bacterial or C. albicans suspension was added to 9.5 mL of underlay gel containing 5 × 10^6 CFU/mL or 5 × 10^4 CFU/mL in 10 mM phosphate buffer (PB; pH 6.6) with 0.03% TSB or 0.03% SDB and 1% Type I (low EEO) agarose. The purified peptide was serially diluted twofold in 5 μL of acidified water (0.01% HAc), and each dilution was added to 2.5-mm-diameter wells made in the 1-mm-thick underlay gels. After incubation for 3 h at either 25 °C (for A. hydrophila, E. tarda, P. aeruginosa, S. iniae, and V. parahemolyticus) or 37 °C (the other strains), the bacterial or yeast suspension was overlaid with 10 mL of double-strength overlay gel containing 6% TSB or 6% SDB with 10 mM PB (pH 6.6) in 1% agarose. Plates were incubated for an additional 18–24 h, after which the clearing zone diameters were measured. After subtracting the diameter of the well, the clearing zone diameter was expressed in units (0.1 mm = 1 U).
(§2) All tested bacteria and yeast were prepared as described above. The minimal effective concentration (MEC, μg/mL) of the synthetic peptides was calculated as the x-intercept of a plot of units against the log10 of the peptide concentration. […] The antimicrobial assay was performed in triplicate and the results were averaged.

[2] = test system: A. hydrophila KCTC2358; experiment: URDA, MEC; format: cell-based, Aeromonas hydrophila; settings: fish pathogen A. hydrophila KCTC2358, Gram −, pH 6.6, 25 °C, triplicate averaged
Description: as §1, §2

[3] = test system: P. aeruginosa KCTC2004; experiment: URDA, MEC; format: cell-based, Pseudomonas aeruginosa; settings: P. aeruginosa KCTC2004, Gram −, pH 6.6, 25 °C, triplicate averaged
Description: as §1, §2

[4] = test system: S. iniae FP5229; experiment: URDA, MEC; format: cell-based, Streptococcus iniae; settings: fish pathogen S. iniae FP5229, Gram +, pH 6.6, 25 °C, triplicate averaged
Description: as §1, §2

[5] = test system: B. subtilis RM125; experiment: URDA, MEC; format: cell-based, Bacillus subtilis; settings: B. subtilis RM125, Gram +, pH 6.6, 37 °C, triplicate averaged
Description: as §1, §2

[6] = test system: E. tarda H-4; experiment: URDA, MEC; format: cell-based, Edwardsiella tarda; settings: fish pathogen E. tarda H-4, Gram −, pH 6.6, 25 °C, triplicate averaged
Description: as §1, §2

[7] = test system: E. coli ML35p inner cytoplasmic membrane; experiment: Cytoplasmic membrane permeabilization, β-galactosidase/ONPG assay; format: cell-based, Escherichia coli; settings: peptide 40 μg/mL, 10 mM NaPB pH 7.4, 1.5 mM ONPG; triplicate
Description: (§3) The outer membrane-permeabilizing activity of peptides was determined using the 1-N-phenylnapthylamine (NPN) uptake assay as described by Koo et al.. Briefly, an overnight culture of E. coli ML35p was transferred to fresh TSB medium and grown to A600 of 0.5–0.6. Cells were harvested, washed, and resuspended in the same volume of buffer (5 mM HEPES, pH 7.2, 5 mM KCN, and 5 mM glucose). Next, 20 μL of 0.5 mM NPN was added and mixed with 1 mL of cells, and peptide samples (40 μg/mL) were added after 3 min. The increase in fluorescence due to partitioning of NPN into the outer membrane was measured 3 min after the addition of peptides using a spectrofluorometer (LS 50B Fluorescence Spectrometer; PerkinElmer, Waltham, MA, USA) at an excitation wavelength of 350 nm and an emission wavelength of 420 nm at 25 °C. The extent of cytoplasmic membrane permeabilization was determined by measuring β-galactosidase activity in E. coli ML35p using O-nitrophenyl-β-D-galactopyranoside (ONPG), a nonmembrane-permeative chromogenic substrate. Mid-logarithmic phase E. coli cells were washed in 10 mM sodium phosphate buffer (NaPB), pH 7.4, and resuspended in the same buffer with 1.5 mM ONPG. The hydrolysis of ONPG to O-nitrophenol over time was monitored spectrophotometrically at 420 nm following the addition of peptide samples. Membrane permeabilization assays were performed in triplicate and the results were averaged.

[8] = test system: M. luteus ATCC9341; experiment: URDA, MEC; format: cell-based, Micrococcus luteus; settings: M. luteus ATCC9341, Gram +, pH 6.6, 37 °C, triplicate averaged
Description: as §1, §2

[9] = test system: C. albicans KCTC7965; experiment: URDA, MEC; format: cell-based, Candida albicans; settings: C. albicans KCTC7965, yeast, pH 6.6, 37 °C, triplicate averaged
Description: as §1, §2

[10] = test system: E. coli ML35p outer membrane; experiment: Outer membrane permeabilization, NPN uptake assay; format: cell-based, Escherichia coli; settings: peptide 40 μg/mL, 3 min after addition, 25 °C, 5 mM HEPES pH 7.2; order 2A > 6A > 1N > 5A; triplicate
Description: as §3

[11] = test system: E. coli ML35p; experiment: URDA, MEC; format: cell-based, Escherichia coli; settings: Gram −, pH 6.6, 37 °C, triplicate averaged
Description: as §1, §2

[12] = test system: E. coli KCTC1116; experiment: URDA, MEC; format: cell-based, Escherichia coli; settings: E. coli KCTC1116, Gram −, pH 6.6, 37 °C, triplicate averaged
Description: as §1, §2

[13] = test system: S. enterica KCTC2514; experiment: URDA, MEC; format: cell-based, Salmonella enteric; settings: S. enterica KCTC2514, Gram −, pH 6.6, 37 °C, triplicate averaged
Description: as §1, §2

[14] = test system: S. aureus RM4220; experiment: URDA, MEC; format: cell-based, Staphylococcus aureus; settings: S. aureus RM4220, Gram +, pH 6.6, 37 °C, triplicate averaged
Description: as §1, §2

[15] = test system: V. parahemolyticus KCCM41664; experiment: URDA, MEC; format: cell-based, Vibrio parahemolyticus; settings: fish pathogen V. parahemolyticus KCCM41664, Gram −, pH 6.6, 25 °C, triplicate averaged
Description: as §1, §2

Substance	Minimal Effectives Concentration [1]	Minimal Effectives Concentration [2]	Minimal Effectives Concentration [3]	Minimal Effectives Concentration [4]	Minimal Effectives Concentration [5]	Minimal Effectives Concentration [6]	Inner cytoplasmic membrane permeabilization ability (ONPG hydrolysis, 420 nm) [7]	Minimal Effectives Concentration [8]	Minimal Effectives Concentration [9]	Outer membrane permeabilization ability (NPN fluorescence) [10]	Minimal Effectives Concentration [11]	Minimal Effectives Concentration [12]	Minimal Effectives Concentration [13]	Minimal Effectives Concentration [14]	Minimal Effectives Concentration [15]
RFPGLMMKLLV-NH2 (C-terminus assumed) [ofLBP 1N]	1.4 µg/mL	4.8 µg/mL	6.4 µg/mL	5.3 µg/mL	1.0 µg/mL	125.0 µg/mL	strong permeabilization ability	5.3 µg/mL	5.9 µg/mL	significant outer membrane permeabilization ability	0.8 µg/mL	1.7 µg/mL	1.2 µg/mL	5.6 µg/mL	2.2 µg/mL
MKLVKTWLKVLK-NH2 [ofLBP 6A]	1.4 µg/mL	2.8 µg/mL	4.6 µg/mL	1.2 µg/mL	1.8 µg/mL	62.5 µg/mL	strong permeabilization ability	2.2 µg/mL	2.7 µg/mL	significant outer membrane permeabilization ability	1.8 µg/mL	3.8 µg/mL	2.6 µg/mL	2.7 µg/mL	0.9 µg/mL
RFPKLMMKLLV-NH2 [ofLBP 2A]	0.8 µg/mL	3.6 µg/mL	6.6 µg/mL	3.0 µg/mL	1.2 µg/mL	62.5 µg/mL	strong permeabilization ability	5.7 µg/mL	5.6 µg/mL	significant outer membrane permeabilization ability	0.6 µg/mL	1.2 µg/mL	1.2 µg/mL	5.0 µg/mL	1.7 µg/mL
KLVKTWLKVLK [ofLBP 5A]	0.7 µg/mL	5.0 µg/mL	8.0 µg/mL	2.7 µg/mL	4.2 µg/mL	250.0 µg/mL	no permeabilization ability	8.0 µg/mL	4.0 µg/mL	significant outer membrane permeabilization ability	1.6 µg/mL	1.6 µg/mL	3.5 µg/mL	3.7 µg/mL	1.2 µg/mL
Piscidin 1 [reference compound]	2.3 µg/mL	10.0 µg/mL	8.0 µg/mL	6.5 µg/mL	4.5 µg/mL	125.0 µg/mL	strong cytoplasmic membrane permeabilizing activity	2.3 µg/mL	>62.5 µg/mL	strong permeabilization ability	2.3 µg/mL	7.0 µg/mL	7.0 µg/mL	2.2 µg/mL	1.8 µg/mL
KLVKTQLKVLK [ofLBP 4N]	62.5 µg/mL	>250.0 µg/mL	>250.0 µg/mL	>250.0 µg/mL	250.0 µg/mL	>250.0 µg/mL	no permeabilization ability	250.0 µg/mL	125.0 µg/mL	no inner or outer membrane permeability	250.0 µg/mL	1.5 µg/mL	250.0 µg/mL	62.5 µg/mL	1.3 µg/mL
